Assay results taken from patent US8383637B2, “2-amino-quinazoline derivatives useful as inhibitors of β-secretase (BACE)” (Jansssen Pharmaceutica N.V., priority 2004, dated 2013).
Read-outs that look alike come from different tables or passages of the source.

Experiments:
β-secretase(BACE) [1] = target: T1, β-secretase(BACE) (Homo sapiens, UniProt P56817); experiment: BACE Assay-2 (FS1 substrate, IC50 and Ki); type: biochemical; conditions: procedure of Example 159, FS1 substrate; read-out: Ki μM (159)
T1 construct: purchased Panvera

β-secretase(BACE) [2] = target: T1, β-secretase(BACE); experiment: BACE FS1% Inhibition Assay; type: biochemical; conditions: FS1 substrate; for inhibition at 10 µM: 10 μM test compound, read-out: % Inhibition (FS) 10 μM
In short: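 Percent inhibition at each tested concentration, referenced to enzyme-free blank and vehicle-only positive control. Reaction: compound and BACE (4 μg/mL working stock) mixed 20 min at room temperature before FS1 substrate (300 μg/mL working stock), then 1 h at room temperature.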

[3] = 0.3 μM test compound, read-out: % Inhibition (FS) 0.3 μM
[4] = 1 μM test compound, read-out: % Inhibition (FS) 1 μM
[5] = 3 μM test compound, read-out: % Inhibition (FS) 3 μM
[6] = 0.3 μM test compound, read-out: % Inhibition (FS)
[7] = 1 μM test compound, read-out: % Inhibition (FS)
[8] = 3 μM test compound, read-out: % Inhibition (FS)

T1 sequence (P56817 46-501): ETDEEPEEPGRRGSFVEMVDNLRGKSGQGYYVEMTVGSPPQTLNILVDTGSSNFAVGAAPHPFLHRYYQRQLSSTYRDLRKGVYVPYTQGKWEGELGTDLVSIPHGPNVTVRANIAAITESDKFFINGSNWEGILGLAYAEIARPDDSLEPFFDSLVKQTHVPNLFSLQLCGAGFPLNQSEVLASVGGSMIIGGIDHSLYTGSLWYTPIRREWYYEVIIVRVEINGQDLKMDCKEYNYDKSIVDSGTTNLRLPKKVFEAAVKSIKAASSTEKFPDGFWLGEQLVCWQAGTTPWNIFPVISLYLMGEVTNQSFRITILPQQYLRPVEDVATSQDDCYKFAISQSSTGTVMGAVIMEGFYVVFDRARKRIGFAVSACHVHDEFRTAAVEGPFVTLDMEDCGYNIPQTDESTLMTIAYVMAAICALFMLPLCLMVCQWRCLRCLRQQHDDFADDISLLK

Row | SMILES | Ki (β-secretase(BACE) [1]) | inhibition at 0.3 µM (β-secretase(BACE) [2]; [3]) | inhibition at 1 µM (β-secretase(BACE) [2]; [4]) | inhibition at 3 µM (β-secretase(BACE) [2]; [5]) | inhibition at 0.3 µM (β-secretase(BACE) [2]; [6]) | inhibition at 1 µM (β-secretase(BACE) [2]; [7]) | inhibition at 3 µM (β-secretase(BACE) [2]; [8]) | also measured
1 | CN(C(=O)c1cccc(CN2Cc3cc(-c4ccccc4C#N)ccc3N=C2N)c1)C1CCCCC1 [Compound 263] | 0.77 µM | 20% | 60% | 92% |  |  |  | 
2 | CC(C)C(CC(=O)N(C)C1CCCCC1)N1Cc2cc(Oc3ccccc3)ccc2N=C1N (stereo not shown) [Compound 201] | 0.4 µM | < 30% | < 30% | 66% |  |  |  | 
3 | CCCS(=O)(=O)NCCN1Cc2cc(Oc3ccccc3)ccc2N=C1N [Compound 134] | 0.37 µM |  |  | 70% |  |  |  | inhibition at 10 µM (β-secretase(BACE) [2]): 104%
4 | CC(=O)Nc1ccccc1-c1ccc2c(c1)CN(Cc1cccc(C(=O)N(C)C3CCCCC3)c1)C(N)=N2 [Compound 328] | 0.33 µM | < 30% | 61% | 92% |  |  |  | 
5 | CN(CCc1ccccc1)C(=O)CC[C@@H](C1CCCCC1)N1Cc2cc(-c3ccccc3F)ccc2N=C1N [Compound 727] | 0.43 µM |  |  |  |  |  |  | % Inhibition (FS) (β-secretase(BACE) [2]; 0.3 μM test compound): 46%; % Inhibition (FS) (β-secretase(BACE) [2]; 1 μM test compound): 80%; % Inhibition (FS) (β-secretase(BACE) [2]; 3 μM test compound): 137%
6 | CN(CCN1Cc2cc(Oc3ccccc3)ccc2N=C1N)C(=O)C1CCCCC1 [Compound 426, Cyclohexanecarboxylic acid [2-(2-amino-6-phenoxy-4H-quinazolin-3-yl)-ethyl]-methyl-amide] | 0.53 µM | < 30% | 34% | 86% |  |  |  | 
7 | COC(=O)[C@@H](COCc1ccccc1)N(C)C(=O)CC[C@@H](C1CCOCC1)N1Cc2cc(Oc3ccccc3)ccc2N=C1N [Compound 783] | 0.301 µM |  |  |  | 109% | 110% | 121% | 
8 | CCCC(CCCC(=O)NC1CCCCCC1)N1Cc2cc(Oc3ccccc3)ccc2N=C1N (stereo not shown) [Compound 137] | 0.73 µM |  |  | 82% |  |  |  | inhibition at 10 µM (β-secretase(BACE) [2]): 107%
9 | NC1=Nc2ccc(-c3ccccc3)cc2CN1CCNC(=O)CC1CCCC1 [Compound 578] | 0.18 µM | < 30% |  |  |  |  |  | % Inhibition (FS) 0.3 μM (β-secretase(BACE) [2]; 0.3 μM test compound, 0.3 µM): 31%
10 | CN(C(=O)CC[C@@H](C1CCC(=O)CC1)N1Cc2cc(Oc3ccccc3)ccc2N=C1N)C1CCCCC1 [Compound 732, (S)-enantiomer of 4-(2-Amino-6-phenoxy-4H-quinazolin-3-yl)-N-cyclohexyl-N-methyl-4-(4-oxo-cyclohexyl)-butyramide] | 0.01 µM |  |  |  | 135% | 135% | 133% | 
11 | NC1=Nc2ccc(Oc3ccccc3)cc2CN1[C@@H](CCC(=O)N[C@H](CO)C(=O)O)C1CCOCC1 [Compound 773, 2-[4-(2-Amino-6-phenoxy-4H-quinazolin-3-yl)-4S-(tetrahydro-pyran-4-yl)-butyrylamino]-3R-hydroxy-propionic acid] | 0.028 µM |  |  |  | 102% | 111% | 119% | 
12 | CN(C(=O)CC[C@@H](CO)N1Cc2cc(Oc3ccccc3)ccc2N=C1N)C1CCCCC1 [Compound 558, (S)-enantiomer of 4-(2-Amino-6-phenoxy-4H-quinazolin-3-yl)-5-hydroxy-pentanoic acid cyclohexyl-methyl-amide] | 0.16 µM | 42% | 92% | 115% |  |  |  | 
13 | Cc1cc(CN(C)C(=O)CC[C@@H](C2CCCCC2)N2Cc3cc(-c4ccccc4F)ccc3N=C2N)on1 [Compound 723] | 0.23 µM |  |  |  | 47% | 63% | 111% | 
14 | CN(C(=O)c1cccc(CN2Cc3cc(-c4cccnc4)ccc3N=C2N)c1)C1CCCCC1 [Compound 170] | 0.77 µM | < 30% | 49% | 67% |  |  |  | 
15 | CN(C(=O)c1cccc(C(C2CCCCC2)N2Cc3cc(Oc4ccccc4)ccc3N=C2N)c1)C1CCCCC1 (stereo not shown) [Compound 534] | 0.18 µM | 54% | 103% | 126% |  |  |  | 
16 | NC1=Nc2ccc(Oc3ccccc3)cc2CN1[C@@H](CCC(=O)N[C@@H](COCc1ccccc1)C(=O)O)C1CCOCC1 [Compound 782] | 0.015 µM |  |  |  | 104% | 107% | 113% | 
